Measured values published in patent publication US20240350483A1, “COMBINATION THERAPY FOR THE TREATMENT OF PSYCHIATRIC DISORDER” (GSKB Pharmaceuticals, LLC, priority 2023, published 2024).

Tests used:
[1] = tested on: Patients with Major Depressive Disorder (MDD); experiment: Case Study 1: outpatient treatment of chronic suicidal ideation and behavior; type: in vivo, human
Procedure: Treatment of Chronic Suicidal Ideation and Behavior in Patients with Major Depressive Disorder (MDD). A married person and parent of three, presented to the outpatient clinic Jul. 16, 2019 to establish care with a new psychiatrist for management of their depression, mood swings, and persistent suicidal ideations. They reported that their current medications, bupropion XL 300 mg q daily, valproic acid 500 mg BID, quetiapine 200 mg daily, and venlafaxine XR 150 mg BID, modafinil 200 mg q AM and noon, buspirone 10 mg TID are not helping. They had been experiencing acute daily changes in mood consisting of unhappiness, irritability, and anger with lead to arguments with their spouse and family. They had been suffering from persistent depression, self-harm, and suicidal impulses. They had three previous suicide attempts resulting in hospitalization, the most recent being six years prior. • During the Initial Psychiatric Evaluation, they were alert and oriented to person, place, time, and situation. […]

[2] = tested on: Patients with Major Depressive Disorder (MDD); experiment: Case 2: outpatient treatment of persistent suicidal ideation; type: in vivo, human
Source text: Treatment of Chronic Suicidal Ideation and Behavior in Patients with Major Depressive Disorder (MDD).
A person presented to the outpatient psychiatric clinic accompanied by their spouse and child after being referred by a friend. Their condition had not improved over the past several years despite ongoing psychiatric treatment including in-patient hospitalizations and multiple medication failures. They reported they had been, “feeling the stress”, experiencing racing and ruminating thoughts, difficulty with conversation, and panic. They expressed persistent suicidal ideation. They denied current or past self-injurious behavior.
• Sensorium: Alert and oriented to person, place, time, situation • Appearance: Casually dressed, well kempt, appeared older than stated age, thin to normal body habitus • Affect: Constricted, tearful at times • Mood: Depressed • Speech: Normal rate, tone, and rhythm. Louder when irritable and argumentative • Thought Content: Passive suicidal ideation, no delusions. • Thought Process: Coherent, logical, mildly circumstantial. • Perception: No auditory or visual hallucinations • Memory: Intact • Abstract Thinking: Intact • Judgment: Fair to good • Insight: Good
During their initial psychiatric evaluation, they were diagnosed with Bipolar Disorder, Unspecified; Rule out Amphetamine-induced psychosis due to their intermittent paranoia, impulsivity, and agitation. […]

CCc1nn(CCCN2CCN(c3cccc(Cl)c3)CC2)c(=O)n1CCOc1ccccc1 [nefazodone, 1-(3-[4-(3-chlorophenyl)piperazin-1-yl]propyl)-3-ethyl-4-(2-phenoxyethyl)-1H-1,2,4-triazol-5 (4H)-one]
suicidal ideations after forgetting and running out of nefazodone ([1]; Nov. 11, 2019, treatment interrupted): more suicidal ideations
side effect reported ([1]; suspected to be caused by increase in nefazodone to 200 mg BID): drowsiness
suicidal thoughts after restarting nefazodone ([2]; nefazodone restarted and slightly increased, close follow up): rapid disappearance
suicidal ideation after stopping nefazodone ([2]; nefazodone stopped for several weeks, after eight months of stability): having suicidal ideation
